According to patent US9187458B2, “Cyanoquinoline derivatives” (Tianjin Hemay Bio-Tech Co., LTD., priority 2010, dated 2015):
pIC50: −log10 of the molar value.

Key:
Type in all cases: cell-based
[1] = test system: A549 cells; test: A549 Cell Growth Inhibition Test (MTT Assay); conditions: Homo sapiens, 72 h incubation
Protocol: A549 Cell Growth Inhibition Test (MTT Assay)
1. Cell strains: […] (human lung caner cell strains);
Culture medium: 90% F12K+10% FBS;
(§1) 1. A plate (10 cm) of cells in logarithmic growth phase normally cultured was collected;
2. The culture solution was sucked out. Tthe plate was washed with 5 ml of PBS 1-2 times;
(§2) 3. PBS was sucked out. 2 ml of 0.25% pancreatin was added to infiltrate the cells for 1 min;
(§3) 4. The pancreatin was sucked out. The culture plate was placed in an incubator. Digestion was carried out for about 2 min at 37° C.;
(§4) 5. 4 ml of complete culture solution was added to the culture plate to stop the digestion. The cells were carefully scoured with micropipette (1 ml) to give a uniform cell suspension. The suspension was implanted into a 96-well cell culture plate by 2500 cells/100 μl per well. The culture plate was incubated overnight under 5% CO2 at 37° C. In day 2, 100 μl of culture solution comprising a compound was added in each well, and further incubated for 72 h under 5% CO2 at 37° C.
(§5) 6. The culture solution was sucked out;
(§6) 7. 100 μl of serum-free culture solution containing 0.5 mg/ml MTT was added in each well, and incubated for 3 h;
(§7) 8. The culture solution was carefully sucked out;
(§8) 9. 100 μl of DMSO was added in each well and vibrated to dissolve;
(§9) 10. OD values were determined at 490 nM.
(§10) 1. Calculation of Relative Inhibition Ratio The inhibition ratio of a compound on cell growth=(PC−n)/(PC−NC)×100%
(§11) IC50: Concentration of a compound where inhibition ratio was 50%. IC50 values were fitted with Origin7.5.

[2] = test system: Sk-Br-3 cells; test: Sk-Br-3 Cell Growth Inhibition Test (SRB Assay); conditions: Homo sapiens, 91 h incubation
Protocol: Sk-Br-3 Cell Growth Inhibition Test (SRB Assay)
1. Cell strains: Sk-Br-3 (human breast cancer cell strains);
2. SRB: available from Sigmaaldrich, goods number: S9012, lot number: 047K3751. SRB was reserved at the room temperature. 0.4% (w/v) of working solution was formulated with 1% of glacial acetic acid. The solution was reserved at 4° C.; anti-tumor compounds; DMSO
Culture medium: 90% DMEM+10% FBS;
1. A plate (10 cm) of cells in logarithmic growth phase normally cultured was collected. The culture solution was sucked out. The plate was washed with 5 mL of PBS 1-2 times;
2. PBS was sucked out. […] of 0.25% pancreatin was added to infiltrate the cells for 30 s;
3. The pancreatin was sucked out. The culture plate was placed in an incubator. Digestion was carried out for about 1.5-2 min at 37° C.;
4. 4 mL of complete culture solution was added to the culture plate to stop the digestion. The cells were carefully scoured with micropipette (1 ml) to give a uniform single cell suspension;
5. Cell suspension was counted. The suspension was diluted to 1×10^5/ml. The resulting suspension was developed uniformly on a plate by 10000 cells/100 μl per well. The culture plate was incubated overnight under 5% CO2 at 37° C. In day 2, 100 μl of culture solution comprising a compound was added in each well, and further incubated for 91 h under 5% CO2 at 37° C.
6. The culture solution was sucked out. 100 uL of TCA fixed cells which were diluted to 10% were added to each well. The plate was kept in a refrigerator for 1 h at 4° C.
7. TCA stationary liquid was sucked out. Each well was washed with 150 μL of ddH2O five times;
8. After the stationary liquid was cleansed, the plate was dried in the air at the room temperature;
9. 60 μL of SRB staining solution was added in each well. The well was stained for 15 min at the room temperature;
10. The SRB staining solution was sucked out. Each well was washed with 150 μL of 1% glacial acetic acid five times;
11. After the SRB staining solution was cleansed, the plate was dried in the air at the room temperature;
12. 100 μL of 10 mM Tris was added in each well. The plate was vibrated to dissolve out SRB;
13. OD values were determined at 570 nM.
To: OD values of the starting content of cells when the cells were developed on a plate;
PC: OD values of cells after normal growth in control wells without a compound;
Ti: OD values of cells after growth in test wells with a compound;
NC: Background OD values of blank well without a compound and cells
Therefore: Ratio of cells in test wells to normal wells (% of control cell growth)=(Ti−To)/(PC−To)×100%
Ratio GI50 was concentration of a compound at the point of 50%.
Therefore: Ratio of killed cells to inoculated cells (% of killed cells)=(Ti−To)/(To−NC)×100%
LC50 was concentration point of a compound when half of the starting inoculated concentration was reached.
Concentration of a compound at this point is defined as TGI (total growth inhibition).

[3] = test system: NCI-H460 cells; test: NCI-H460 Cell Growth Inhibition Test (MTT Assay); conditions: Homo sapiens, 72 h incubation
Protocol: NCI-H460 Cell Growth Inhibition Test (MTT Assay)
1. Cell strains: NCI-H460 (human large cell lung cancer cell strains);
as §1
(§12) 2. The culture solution was sucked out. The plate was washed with 5 ml of PBS 1-2 times;
as §2, §3, §4, §5, §6, §7, §8, §9, §10, §11

[4] = test system: LoVo cells; test: LoVo Cell Growth Inhibition Test (MTT Assay); conditions: Homo sapiens, 72 h incubation
Protocol: LoVo Cell Growth Inhibition Test (MTT Assay)
1. Cell strains: LoVo (human intestinal cancer cell strains);
as §1, §12, §2
4. The pancreatin was sucked out. The culture plate was placed in an incubator. Digestion was carried out for about 4 min at 37° C.;
as §4, with “added in” for “added to”, “by 3000-4000” for “by 2500”, “added into” for “added in”
as §5
7. 100 μl of serum-free culture solution containing 0.5 mg/ml MTT was added in each well, and incubated for 4 h;
as §7, §8, §9, §10, §11

[5] = test system: AsPC-1 cells; test: AsPC-1 Cell Growth Inhibition Test (MTT Assay); conditions: Homo sapiens, ASPC1, 72 h incubation
Protocol: AsPC-1 Cell Growth Inhibition Test (MTT Assay)
Cell strains: AsPC-1 (human pancreatic cancer cell strains);
as §1, §12
(§13) 3. PBS was sucked out. 1.5 ml of 0.25% pancreatin was added to infiltrate the cells for 1 min;
4. The pancreatin was sucked out. The culture plate was placed in an incubator. Digestion was carried out for about 7.5 min at 37° C.;
as §4, with “4.5” for “4”, “8000” for “2500”
as §5, §6, §7
(§14) 9. 100 μl of DMSO was added in each welland vibrated to dissolve;
as §9, §10, §11

[6] = test system: CCRF-CEM/T cells; test: CCRF-CEM/T Cell Growth Inhibition Test (MTT Assay); conditions: Homo sapiens, CCRF-CEM/T cells (resistant to paclitaxel), 72 h incubation
Protocol: CCRF-CEM/T Cell Growth Inhibition Test (MTT Assay)
Cell strains: CCRF-CEM/T (human acute lymphocytic cell leukemia cells);
triple lysate solution: 10% SDS, 5% isobutanol, 0.012M HCl.
1. Cells were cultured to exponential phase. The cells were suspension cells;
2. The cells were collected by centrifuge. The resulting cells were resuspended in a complete culture medium to a desired concentration. The cells suspension was implanted into a 96-well cell culture plate by 20000 cells per well. A compound was added in the wellsuch that the final volume of the system was 120 μl. The system was further incubated for 72 h under 5% CO2 at 37° C.
7. 30 μl of serum-free culture solution containing 2.5 mg/ml MTT was added in each well, and incubated for 3 h;
8. 150 μl of triple lysate solution was added in each well and placed to dissolve at the room temperature;
9. OD values were determined at 570 nM.
as §10, §11

[7] = test system: Fadu cells; test: Fadu Cell Growth Inhibition Test (MTT Assay); conditions: Homo sapiens, 72 h incubation
Protocol: Fadu Cell Growth Inhibition Test (MTT Assay)
Cell strains: Fudu (human head and neck cancer cell strains);
Culture medium: 90% EMEM+10% FBS;
as §1, §12, §13
(§15) 4. The pancreatin was sucked out. The culture plate was placed in an incubator. Digestion was carried out for about 5 min at 37° C.;
as §4, with “4.5” for “4”, “6000” for “2500”
as §5, §6, §7, §14, §9, §10, §11

[8] = test system: SK-OV-3 cells; test: SK-OV-3 Cell Growth Inhibition Test (MTT Assay); conditions: Homo sapiens, 72 h incubation
Protocol: SK-OV-3 Cell Growth Inhibition Test (MTT Assay)
Cell strains: SK-OV-3 (human ovarian cancer cell strains);
Culture medium: 90% McCoy's 5A+10% FBS;
as §1, §12, §13, §15
as §4, with “5. 4.5 ml of” for “5. 4 ml of”, “stop the digestion.T the cells were” for “stop the digestion. The cells were”, “cell culture disc by 4000” for “cell culture plate by 2500”, “disc by 4000 cells/100 μl” for “plate by 2500 cells/100 μl”
as §5, §6, §7, §8, §9, §10, §11

Structure (SMILES) | pIC50 [1] | GI50 [2] [nM] | pIC50 [3] | pIC50 [4] | pIC50 [5] | pIC50 [6] | pIC50 [7] | pIC50 [8]
CN(C)C/C=C/C(=O)Nc1cc2c(Nc3ccc(OCc4ccc(C(C)(C)C)cc4)c(Cl)c3)c(C#N)cnc2cc1OC1CCOC1 (stereo not drawn) [Example 14, (E)-N-(4-(4-(4-TERT-BUTYLBENZYLOXY)-3-CHLOROPHENYLAMINO)-3-CYANO-7-(TETRAHYDROFURAN-3-YL-OXY)QUINOLIN-6-YL)-4-(DIMETHYLAMINO)-BUT-2-ENAMIDE] | 5.82 | 924 | 6.03 | 5.89 | 5.85 | – | – | –
CN(C)C/C=C/C(=O)Nc1cc2c(Nc3ccc(OCc4ccccn4)c(Cl)c3)c(C#N)cnc2cc1OC1CCOC1 (stereo not drawn) [Example 2, (E)-N-(4-(3-CHLORO-4-(PYRIDIN-2-YL-METHOXY)PHENYLAMINO)-3-CYANO-7-(TETRAHYDROFURAN-3-YL-OXY)QUINOLIN-6-YL)-4-(DIMETHYLAMINO)-BUT-2-ENAMIDE] | – | – | – | – | 6.11 | 5.74 | 6.83 | 6.48
